Results from patent US7897559B2, “Dermatological composition and kit containing avermectin compound for treating dermatological conditions” (priority 2000, dated 2011).

What was measured:
[1] = Safety and tolerability observed in the informal trials of topical ivermectin; assay type: in vivo, human; details: informal clinical trial, topical application, any body locations
Text: It is known that some of the diseases, such as perioral dermatitis, the skin on the eyelids can be affected. To treat eyelids, a high concentration of the medicine should be avoided to prevent irritation of the eyes.
(§1) Examples 4 to 12 illustrate clinical effectiveness of the method of the present invention.

[2] = system: head lice; details: after a single topical application; cited from earlier work
[3] = system: transient acantholytic dermatitis, acne miliaris necrotica, acne varioliformis, perioral dermatitis, acneiform eruptions, acne vulgaris, seborrheic dermatitis; assay: Informal clinical trial of topical ivermectin across the dermatological conditions; assay type: in vivo, human
Text: In a preferred embodiment, ivermectin is used because it is readily available commercially. The concentration of ivermectin in the dermatological composition for the purpose of the present invention can be in a broad range from about 0.05% to 8% weight by volume (w/v).
The treatment method using ivermectin dermatological composition for each of these dermatological conditions is similar. Preferably, in an initial treatment of these dermatological conditions the ivermectin dermatological composition can be applied topically from one to several times daily for a period of from about one week to several weeks, to substantially control the condition and clear the lesions. The initial dosage, including frequency of the topical application, ivermectin concentration of the dermatological composition, and the length of the initial treatment period can be determined depending on a specific disease, severity of the disease, and the response of the patient to the medication. For example, acne miliaris necrotica is more difficult to treat, and it frequently requires an initial treatment of three weeks or longer. While perioral dermatitis patients can respond to ivermectin treatment rapidly, and healing of lesions can occur in less than two weeks. After the initial treatment, a maintenance dosage, that has less frequent application, and/or a dermatological composition with less concentration of ivermectin, can be used for maintaining the condition.
as §1

[4] = oral dosage of a moderate ivermectin concentration; cited from earlier work
[5] = informal clinical trial, topical application to affected skin

ivermectin
side effects [1]: no side effects observed in any body locations | curative effect on head lice [2]: absolute curative effect | dermal infection of the affected area [3, 5]: controls dermal infection of the affected area | inflammation of the affected area [3, 5]: controls inflammation of the affected area | itching and skin irritation caused by the conditions [3, 5]: removes itching and skin irritation | lesions [3, 5]: clears up lesions | clinical effectiveness ([3]; lotion or cream, ivermectin concentration as low as 0.075%): clinically effective | safety in human [4]: safe in human, without serious adverse side effects
